Assay [1] addresses T1, D(1A) dopamine receptor (Homo sapiens, UniProt P21728). The experiment in a line: Agonist activity at dopamine D1 receptor assessed as [35S]GTPgammaS binding in cell-based assay relative to control. In kind it is functional. For orientation: GTPγS resists hydrolysis and so accumulates on activated G proteins.
Assay [2] concerns the target T1, D(1A) dopamine receptor. Briefly: Antagonist activity at dopamine D1 receptor assessed as inhibition of [35S]GTPgammaS binding in cell-based assay relative to control. The assay is classed as functional.
Assay [3] has as its target T1, D(1A) dopamine receptor. Briefly: Displacement of [3H]SCH23390 from human dopamine D1 receptor expressed in HEK293 cells. The assay is classed as cell-based. A general note: Loss of bound radioactivity is the signal in a displacement assay; it reports binding, not function.
Assay [4] addresses T2, D(2) dopamine receptor (Homo sapiens, UniProt P14416). Briefly: Displacement of [3H]Spiprone from human dopamine D2 receptor expressed in HEK293 cells at 10 uM. In kind it is cell-based.
The target in assay [5] is T1, D(1A) dopamine receptor. The experiment in a line: Antagonist activity at dopamine D1 receptor assessed as inhibition of [35S]GTPgammaS binding in cell-based assay. The assay is classed as functional.
Assay [6] has as its target 5-hydroxytryptamine receptor 2A (Homo sapiens) (UniProt P28223). Briefly: Displacement of [3H]Ketanserin from human 5HT2A receptor expressed in HEK293 cells at 10 uM. The assay is classed as cell-based.
The target of assay [7] is T3, 5-hydroxytryptamine receptor 1A (Homo sapiens) (UniProt P08908).
T3 sequence (whole entry): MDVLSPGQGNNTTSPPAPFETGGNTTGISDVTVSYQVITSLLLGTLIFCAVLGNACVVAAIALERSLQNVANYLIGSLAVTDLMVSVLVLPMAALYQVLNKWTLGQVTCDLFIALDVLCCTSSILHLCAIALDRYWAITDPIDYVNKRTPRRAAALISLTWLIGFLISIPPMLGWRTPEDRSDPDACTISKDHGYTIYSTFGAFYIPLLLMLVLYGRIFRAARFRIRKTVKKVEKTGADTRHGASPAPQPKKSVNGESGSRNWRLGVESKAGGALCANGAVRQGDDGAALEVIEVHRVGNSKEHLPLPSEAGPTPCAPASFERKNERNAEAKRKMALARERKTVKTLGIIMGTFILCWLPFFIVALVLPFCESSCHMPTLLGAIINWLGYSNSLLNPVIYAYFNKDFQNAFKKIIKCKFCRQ
The experiment in a line: Displacement of [3H]-8-OH-DPAT from human 5HT1A receptor expressed in HEK293 cells at 10 uM. The assay is classed as cell-based.

Assay [8] has as its target T1, D(1A) dopamine receptor. The experiment in a line: Displacement of [3H]SCH23390 from human dopamine D1 receptor expressed in HEK293 cells at 10 uM. The assay is classed as cell-based.
The target in assay [9] is T2, D(2) dopamine receptor. The experiment in a line: Displacement of [3H]Spiprone from human dopamine D2 receptor expressed in HEK293 cells. The assay is classed as cell-based.
Assay [10] addresses D(1A) dopamine receptor (Rattus norvegicus, UniProt P18901). Briefly: Agonist activity at D1 receptor in rat striatum assessed as synaptosomal adenylate cyclase activity. In kind it is functional, tissue-based.
Assay [11] deals with T4, 5-hydroxytryptamine receptor 1A (Homo sapiens, UniProt P08908).
T4 sequence (P08908 whole entry): T3 sequence (whole entry)
The experiment in a line: Displacement of [3H]-8-OH-DPAT from human 5HT1A receptor expressed in HEK293 cells. The assay is classed as cell-based.

Chain of 5-hydroxytryptamine receptor 2A (Homo sapiens) (P28223 whole entry): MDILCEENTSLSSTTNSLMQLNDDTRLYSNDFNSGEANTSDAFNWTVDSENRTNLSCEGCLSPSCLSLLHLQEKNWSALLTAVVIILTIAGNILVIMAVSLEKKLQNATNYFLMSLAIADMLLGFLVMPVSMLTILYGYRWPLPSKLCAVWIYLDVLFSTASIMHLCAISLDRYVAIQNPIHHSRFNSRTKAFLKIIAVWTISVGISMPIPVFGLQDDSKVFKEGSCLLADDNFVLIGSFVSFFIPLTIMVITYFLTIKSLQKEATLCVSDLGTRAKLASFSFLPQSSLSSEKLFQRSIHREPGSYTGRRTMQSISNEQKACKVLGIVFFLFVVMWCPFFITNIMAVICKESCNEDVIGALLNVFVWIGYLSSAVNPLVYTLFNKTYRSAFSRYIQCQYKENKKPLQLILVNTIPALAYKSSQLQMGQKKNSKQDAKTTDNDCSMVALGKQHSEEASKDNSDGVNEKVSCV
T1 sequence (P21728 whole entry): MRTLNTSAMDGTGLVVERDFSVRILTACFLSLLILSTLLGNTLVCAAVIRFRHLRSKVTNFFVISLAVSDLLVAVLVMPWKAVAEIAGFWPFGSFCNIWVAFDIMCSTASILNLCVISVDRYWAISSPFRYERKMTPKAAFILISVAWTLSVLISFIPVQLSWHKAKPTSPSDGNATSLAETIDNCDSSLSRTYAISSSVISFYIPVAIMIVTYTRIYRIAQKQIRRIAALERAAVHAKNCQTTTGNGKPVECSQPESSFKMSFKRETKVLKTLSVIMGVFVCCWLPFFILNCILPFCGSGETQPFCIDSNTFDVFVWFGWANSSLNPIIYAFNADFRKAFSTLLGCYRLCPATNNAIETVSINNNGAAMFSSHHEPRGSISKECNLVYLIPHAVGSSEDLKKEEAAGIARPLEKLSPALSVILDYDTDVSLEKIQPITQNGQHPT
T2 sequence (P14416 whole entry): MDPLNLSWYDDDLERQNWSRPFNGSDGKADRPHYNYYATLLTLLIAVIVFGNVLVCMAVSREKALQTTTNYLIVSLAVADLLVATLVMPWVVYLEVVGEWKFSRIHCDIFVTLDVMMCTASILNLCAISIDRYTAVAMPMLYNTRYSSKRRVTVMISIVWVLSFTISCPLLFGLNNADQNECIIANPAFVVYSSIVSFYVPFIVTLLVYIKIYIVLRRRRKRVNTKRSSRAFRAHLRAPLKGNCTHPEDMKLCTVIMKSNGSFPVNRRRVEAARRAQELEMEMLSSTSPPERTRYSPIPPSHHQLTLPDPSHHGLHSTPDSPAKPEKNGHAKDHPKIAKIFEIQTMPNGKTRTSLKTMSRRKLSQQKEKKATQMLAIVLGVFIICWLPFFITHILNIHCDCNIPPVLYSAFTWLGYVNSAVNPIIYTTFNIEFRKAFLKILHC
Chain of D(1A) dopamine receptor (Rattus norvegicus, UniProt P18901) (P18901 whole entry): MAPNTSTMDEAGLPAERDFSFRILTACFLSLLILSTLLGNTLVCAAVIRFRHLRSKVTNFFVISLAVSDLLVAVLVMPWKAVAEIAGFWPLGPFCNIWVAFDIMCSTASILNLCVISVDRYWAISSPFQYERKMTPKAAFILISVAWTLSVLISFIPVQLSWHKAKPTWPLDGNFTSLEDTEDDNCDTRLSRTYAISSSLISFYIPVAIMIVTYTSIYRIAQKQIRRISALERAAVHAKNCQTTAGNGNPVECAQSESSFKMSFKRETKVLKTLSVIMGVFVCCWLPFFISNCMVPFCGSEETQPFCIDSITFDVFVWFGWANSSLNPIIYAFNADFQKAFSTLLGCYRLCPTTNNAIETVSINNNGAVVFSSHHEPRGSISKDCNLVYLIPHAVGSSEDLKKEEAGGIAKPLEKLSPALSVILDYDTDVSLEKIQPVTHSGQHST

In general, Emax refers to the maximal effect, on the per cent scale that the assay sets. Regarding `Oc1cc2c(cc1O)C(c1ccccc1)CNCC2` (stereo not given), the maximum response (Emax) in [1] was found to be 100%.
Broadly, the IC50 is the point on the concentration scale where inhibition reaches its midpoint. The term Ki denotes the equilibrium dissociation constant of an inhibitor or competing ligand from its target. By inhibition is commonly meant how much of the control response was suppressed. Higher therefore signals a response far below the control. For the compound `COc1cc2c(c(OC)c1)CN1CCc3cc(OC)c(OC)c(OC)c3[C@@H]1C2`, in assay [2], the Imax is 82.5%. Besides, the values for the 50% inhibitory concentration (IC50) in assay [3] and in assay [5] were 45.4 nM and 11800 nM, respectively. Besides, the inhibition constant Ki in [3] came to 23.8 nM. For the same compound, the inhibition was determined as 51.7% in assay [4], 48.8% in [6] and 66.9% in assay [7].
Regarding `COc1cc2c(c(OC)c1OC)[C@@H]1Cc3cc4c(cc3CN1CC2)OCO4`, the inhibition stood at 43.4% in [8], 70.7% in [4], 72.7% in [6] and 70.3% in [7].
On to `COc1cc2c(cc1OC)[C@@H]1Cc3cc(C)cc(C)c3CN1CC2`, for which the IC50 in assay [9] was found to be 1160 nM; in assay [3], 684 nM. The Ki in assay [9] worked out at 224 nM; in assay [3] it was 338 nM. Moreover, the results for the inhibition in [6] and in assay [7] were 36.5% and 54.8%, respectively.
What is called EC50 is the concentration at which the effect is half-maximal. Turning to `COc1cc2c(cc1O)[C@@H]1Cc3ccc(O)c(OC)c3CN1CC2` [STEPHOLIDINE], the IC50 in [9] was found to be 105 nM; in assay [3] it was 12.3 nM. Further, the Ki in [9] is 56.2 nM; in assay [3], 6.23 nM. Moreover, the inhibition in assay [6] was 45.6%; in [7], 89.3%. In addition, the EC50 in assay [10] was 41100 nM.
`COc1cc2c(cc1OC)[C@@H]1Cc3c(CO)c(OC)cc(OC)c3CN1CC2` registered an IC50 in assay [3] of 114 nM. For the same compound, the Ki came to 64.1 nM in [3] and 730 nM in [11]. For the same compound, the inhibition in [4] stood at 39.5%; in assay [6], 24.1%.
As to `CN1CCc2cc(Cl)c(O)cc2[C@@H](c2ccccc2)C1`, the Imax in assay [2] amounted to 80%.
On to `COc1ccc2c(c1)C[C@H]1c3c(OC)cc(OC)c(CO)c3CCN1C2`, for which the inhibition in assay [8] amounted to 56%; in assay [6], 21.4%; in assay [7] it was 1.34%.
For `COc1cc2c(c(OC)c1)CN1CCc3cc(OC)c(OCc4ccccc4)c(OC)c3[C@@H]1C2`, the inhibition stood at 59.3% in [8], 54.2% in assay [4], 69.1% in assay [6] and 43.7% in assay [7].
The like results for `COc1ccc2c(c1)C[C@H]1c3cc(OC)c(OC)cc3CCN1C2` were, in that order, 81.9%, 10.2%, 33.5% and 57.4%.
On to `COc1cc2c(c(OC)c1)CN1CCc3cc(OC)c(O)c(OC)c3[C@@H]1C2`, for which, in assay [3], the concentration for half-maximal inhibition (IC50) was found to be 98.1 nM. The inhibition constant (Ki) in assay [3] is 52.3 nM. The inhibition came out at 58.8% in assay [4], 51.6% in assay [6] and 44.9% in [7].
Consider `COc1ccc(OC)c2c1C[C@H]1c3c(OC)cc(OC)c(CO)c3CCN1C2`, for which the inhibition is 48.8% in [8], 25.3% in assay [6] and 33.1% in [7].
Consider `COc1cc2c(c(OC)c1)CN1CCc3cc(OC)cc(OC)c3[C@@H]1C2`, for which the Imax in [2] turned out to be 94.2%. For the same compound, the IC50 in assay [3] was 14.3 nM; in assay [5], 23300 nM. In assay [3], this compound had a Ki of 7.97 nM. The inhibition in assay [4] is 81.9%; in assay [6] it was 25%; in assay [7], 61.7%.
In the case of `COc1cc(OC)c2c(c1CO)C[C@H]1c3c(cc(OC)c(OC)c3OC)CCN1C2`, the inhibition in [8] worked out at 7.37%; in assay [4], 47.2%; in assay [6] it was 59.7%; in assay [7], 67.4%.
Take `COc1cc2c(c(OC)c1)CN1CCc3cc(OC)c(O)cc3[C@@H]1C2`: the Imax in [2] stood at 94.3%. Further, the results for the IC50 in [3] and in assay [5] were 4.86 nM and 1380 nM, respectively. Further, the inhibition in assay [4] amounted to 83.3%; in assay [6], 32.4%; in assay [7], 56.9%.
As for `COc1cc2c(cc1OC)C1Cc3cc(C)cc(C)c3CN1CC2` (racemic), in assay [3], the IC50 was determined as 2920 nM. The same compound displayed a Ki in assay [3] of 1440 nM. For the same compound, the inhibition in [4] was determined as 77.4%; in assay [6] it was 19.9%; in assay [7] it was 28.4%.
The like results for `COc1cc2c(c(OC)c1)CN1CCc3cc4c(cc3[C@@H]1C2)OCO4` were, in that order, 142 nM, 74.5 nM, 1.02%, 31.3% and 57.6%.
Take `COc1ccc2c(c1)C[C@H]1c3cc4c(cc3CCN1C2)OCO4`: the inhibition in assay [8] was found to be 83.2%; in assay [4], 22.7%; in assay [6], 20.8%; in [7], 5.48%.
As for `COc1cc2c(c(OC)c1)CN1CCc3cc(OC)c(OC)cc3[C@@H]1C2`, the concentration for half-maximal inhibition (IC50) in assay [3] came to 189 nM. This compound also showed a Ki in assay [3] of 106 nM. The results for the inhibition in assay [4], in [6] and in assay [7] were 3.48%, 17.2% and 66.9%, respectively.
Compound `COc1cc(OC)c2c(c1CO)C[C@H]1c3cc4c(cc3CCN1C2)OCO4` had an IC50 in assay [3] of 324 nM. Besides, the inhibition constant (Ki) in assay [3] came out at 182 nM; in assay [11] it was 600 nM. Further, the inhibition in [4] amounted to 41.8%; in assay [6] it was 56.2%.
For `COc1cc2c(cc1O)[C@@H]1Cc3c(CO)c(OC)cc(OC)c3CN1CC2`, the IC50 in assay [9] is 514 nM; in [3], 30.7 nM. Also, the inhibitory constant (Ki) worked out at 147 nM in assay [9] and 17.3 nM in assay [3]. The inhibition in assay [6] worked out at 18.4%; in assay [7], 80.9%.
For the compound `COc1cc(OC)c2c(c1CO)CCN1Cc3cc4c(cc3C[C@@H]21)OCO4`, the inhibition in [8] came out at 17.4%; in [6], 16.9%.
Consider `COc1ccc2c(c1)C[C@H]1c3cc(O)c(OC)cc3CCN1C2`, for which the IC50 in assay [9] worked out at 873 nM; in [3], 68.9 nM. In addition, the values for the Ki in [9] and in [3] were 347 nM and 35.8 nM, respectively. Moreover, the inhibition in assay [6] was 68.7%; in assay [7] it was 65.6%.
As for `COc1ccc2c(c1)C[C@H]1c3cc(OCc4ccccc4)c(OC)cc3CCN1C2`, the inhibition was found to be 86% in [8], 36% in assay [4], 13.5% in [6] and 37.3% in assay [7].
For the compound `COc1cc2c(cc1O)[C@@H]1Cc3cc(C)cc(C)c3CN1CC2`, the half-maximal inhibitory concentration (IC50) is 456 nM in [9] and 56.4 nM in [3]. For the same compound, the Ki came out at 161 nM in [9] and 28.9 nM in assay [3]. In addition, the figures for the inhibition in assay [6] and in assay [7] were 27.1% and 74.5%, respectively.

The record behind these values is ChEMBL document CHEMBL2057072, “Design, synthesis, and pharmacological evaluation of novel tetrahydroprotoberberine derivatives: selective inhibitors of dopamine D₁ receptor” (Bioorg Med Chem, 2012).
